# Assay results published in US5783574A, “Imidazolylakyl derivatives of imidazo [5,1-c][1,4]benzoxazin-1-one process for their preparation” (Pharmacia & Upjohn S.p.A., priority 1994, dated 1998).
# Where a name gives a salt, the structure may show the parent alone.
# Experiments:
# [1] = target: T1, 5-HT3 binding sites in rat brain cortical membranes (Rattus norvegicus, UniProt P35563); assay: inhibition of 3H-BRL 43694 (Granisetron) binding in rat entorhinal cortex membranes; settings: read-out: 5-HT3 binding affinity, 3H-BRL 43694 IC50
# T1 construct: from tissue; host or cells: rat entorhinal cortex membranes
# T1 sequence (P35563 24-483): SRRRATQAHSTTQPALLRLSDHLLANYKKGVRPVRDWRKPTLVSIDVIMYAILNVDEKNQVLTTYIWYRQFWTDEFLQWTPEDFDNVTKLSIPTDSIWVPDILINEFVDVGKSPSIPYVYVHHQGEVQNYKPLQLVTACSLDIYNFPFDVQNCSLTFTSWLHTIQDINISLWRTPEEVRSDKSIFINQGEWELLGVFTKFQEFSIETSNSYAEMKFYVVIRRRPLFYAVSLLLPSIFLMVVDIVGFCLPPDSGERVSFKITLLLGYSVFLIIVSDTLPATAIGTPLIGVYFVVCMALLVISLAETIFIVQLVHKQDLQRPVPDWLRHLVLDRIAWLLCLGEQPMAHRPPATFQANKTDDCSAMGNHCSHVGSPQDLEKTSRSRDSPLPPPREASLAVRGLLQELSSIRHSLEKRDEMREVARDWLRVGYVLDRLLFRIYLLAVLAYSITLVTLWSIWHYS
# Text: [^3 H]-BRL 43694 (Granisetron) is a specific ligand for 5-HT3 binding sites in rat brain cortical membranes: Biochem. Pharmac. 38, 1693-1695, 1989.
# The following Table II summarizes the activity data obtained in this in-vitro test for two representative compounds of the invention in comparison with compound A, i.e. a close chemically related compound falling within U.S. Pat. No. 4,134,974.
# 5-HT3 binding affinity for rat entorhinal
# 5HT3 receptor = target: T2, 5HT3 receptor (Rattus norvegicus, UniProt P35563); assay: inhibition of the von Bezold-Jarisch reflex (chemoreflex) evoked by 5-HT in the anesthetised rat; assay type: in vivo; settings: anesthetized rat, 5-HT 30 μg/kg i.v.; for % inhibition of the von Bezold-Jarisch reflex elicited by 5-HT: compound 100 μg/kg i.v., N=6, mean; for ED50: iv, limits printed on the line below
# T2 construct: evoked by 5-HT in the anesthetised rat; from tissue; host or cells: whole anaesthetised rat (by own knowledge: cardiopulmonary vagal afferents)
# T2 sequence (P35563 24-483): T1 sequence (P35563 24-483)
# Procedure: Pharmacol. 326, 36-44 (1984).
# Inhibition of the von Bezold-Jarisch reflex
# elicited by 5-HT (30 μg/kg i.v.) by FCE
# compounds in the anesthetized rat. Values are
# mean ± in S.E.M. from N animals
smiles,measurement,setting,value
"Cc1nccn1CCN1CC2COc3ccccc3N2C1=O (stereo not shown) [Compound A, 2,3,3a,4tetrahydro-2-[2(2-methyl-imidazol-1-yl)ethyl1H-imidazo[5,1c][1,4]enzoxazin1-one hydrochloride, reference compound]",IC50,[1],1.21 µM
"Cc1[nH]cnc1CN1CC2COc3ccccc3N2C1=O (stereo not shown) [FCE 28158, 2,3,3a,4-tetrahydro-2-(5-methyl-1H-imidazol-4-yl)methyl-1H-imidazo[5,1-c][1,4]benzoxazin-1-one]",% inhibition of the von Bezold-Jarisch reflex elicited by 5-HT,5HT3 receptor,82%
same,ED50,5HT3 receptor,0.0236 mg/kg
same,IC50,[1],0.076 µM
"Cc1[nH]cnc1CN1CC2COc3ccc(Cl)cc3N2C1=O (stereo not shown) [FCE 28609, 2,3,3a,4-tetrahydro-8-chloro-2-(5-methyl-1H-imidazol-4-yl)methyl-1H-imidazo[5,1-c][1,4]benzoxazin-1-one]",% inhibition of the von Bezold-Jarisch reflex elicited by 5-HT,5HT3 receptor,97.5%
same,ED50,5HT3 receptor,0.00818 mg/kg
same,IC50,[1],0.006 µM
